Results on 27 molecules are retold here after patent US10457644B2, “Pyrazol compounds as EAAT3 inhibitors” (Hoffmann-La Roche Inc., priority 2016, dated 2019).

The target of one data set is T1, human EAAT3 (Homo sapiens, UniProt P43005).
T1 construct: expressed in transfected cells
T1 sequence (P43005 1-524): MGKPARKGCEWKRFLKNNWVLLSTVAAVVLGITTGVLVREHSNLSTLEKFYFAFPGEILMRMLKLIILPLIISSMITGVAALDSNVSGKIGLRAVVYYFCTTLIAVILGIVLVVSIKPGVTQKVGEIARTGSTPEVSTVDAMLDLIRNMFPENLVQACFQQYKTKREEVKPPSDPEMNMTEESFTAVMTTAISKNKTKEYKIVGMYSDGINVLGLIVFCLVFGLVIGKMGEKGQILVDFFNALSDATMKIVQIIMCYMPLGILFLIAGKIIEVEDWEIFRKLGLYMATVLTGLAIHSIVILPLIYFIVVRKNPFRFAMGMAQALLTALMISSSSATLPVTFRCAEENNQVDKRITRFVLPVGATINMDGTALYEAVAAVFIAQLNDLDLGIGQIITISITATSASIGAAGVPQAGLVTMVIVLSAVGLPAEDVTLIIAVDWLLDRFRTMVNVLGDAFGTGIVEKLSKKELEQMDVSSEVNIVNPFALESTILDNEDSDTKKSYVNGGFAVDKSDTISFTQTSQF
Nature of the data set: FLIPR Membrane Potential (FMP) assay. Type of data set: cell-based. To be noted: HEK-293 cells stably expressing human EAAT3; L-glutamate as agonist at 80% of maximum response; antagonist applied 15 min before; Kb by Cheng-Prusoff from IC50. Here is the method:
The FLIPR Membrane Potential (FMP) Assay
HEK-293 cells stably expressing human EAAT3 were seeded at 55 000 cells/well in growth medium (DMEM glutamate free (Invitrogen 11960-044), 1% Pen Strep (10 ml/l GIBCO BRL N^o 15140-023), 10% FCS non dialysed heat inactivated, 5 mg/l puromycin) in poly-D-lysine treated 96-well black microtiter plates with clear-bottom. After 24 h, the growth medium was removed and 100 μl/well of Krebs buffer (140 mM NaCl, 4.7 mM KCl, 2.5 mM CaCl2, 1.2 mM MgCl2, 11 mM HEPES, 10 mM D-glucose, pH=7.4) added. The cells were then loaded by adding 100 μl/well FMP assay dye (FLIPR Membrane Potential assay reagent, Molecular Devices). The 96-well plates were then incubated at 37° C. for 1 h. The depolarization of the cells will cause more dye to enter in the cells, where it will bind to intracellular proteins and lipids and cause an increase in the fluorescence signal. Antagonist potency at human EAAT3 was determined by using L-glutamate as agonist at a concentration which gives 80% of the maximum response. The antagonists were applied 15 min before the application of the agonist L-glutamate. The assays were performed at room temperature and measurements done by using a Fluorometric Imaging Plate Reader (FLIPR, Molecular Devices) and filter #2. Responses were measured as peak increase in fluorescence minus basal (i.e. fluorescence without addition of L-glutamate). Kb was determined using the Cheng-Prusoff equation Kb=IC50/[1+(A/EC50)], where IC50 is the concentration of the antagonist producing 50% inhibition, A is the concentration of the agonist against which the IC50 is being determined ([…]) and EC50 is the concentration of the agonist producing […].

The structures appear in SMILES notation.

One may read the Kb as the affinity of an antagonist, worked out from how it opposes an agonist. One may read the melting point as the temperature, or range, at which the solid turns liquid. Turning to `Cn1nccc1-c1cc(C(=O)NC(C)(C)C)cc(-c2ccc(Cl)cc2)c1` [Example 1, N-tert-Butyl-3-(4-chlorophenyl)-5-(2-methyl-pyrazol-3-yl)-benzamide], the melting point turned out to be 191 °C. Moreover, the antagonist equilibrium constant (Kb) at human EAAT3 was 240 nM.

Molecule `CC(C)(C)NC(=O)c1cc(-c2ccc(F)cc2)cc(-c2ccnn2C(C)(C)C)c1` [Example 2, N-tert-Butyl-3-(2-tert-butyl-pyrazol-3-yl)-5-(4-fluorophenyl)-benzamide] yielded a melting point of 210 °C. Further, on human EAAT3, the Kb worked out at 190 nM.

`CC(C)(C)NC(=O)c1cc(-c2ccc(C(F)(F)F)cc2)cc(-c2ccnn2C(C)(C)C)c1` [Example 3, N-tert-Butyl-3-(2-tert-butyl-pyrazol-3-yl)-5-[4-(trifluoromethyl)-phenyl]-benzamide] showed a melting point of 205 °C. In addition, the Kb at human EAAT3 is 280 nM.

`CC(C)(C)NC(=O)c1cc(-c2ccc(Cl)cc2)cc(-c2ccnn2C(C)(C)C)c1` [Example 4, N-tert-Butyl-3-(2-tert-butyl-pyrazol-3-yl)-5-(4-chlorophenyl)-benzamide] gave a melting point of 209 °C. In addition, the Kb at human EAAT3 was 320 nM.

As for `CC(C)n1nccc1-c1cc(C(=O)NC(C)(C)C)cc(-c2ccc(Cl)cc2)c1` [Example 5, N-tert-Butyl-3-(4-chlorophenyl)-5-(2-propan-2-yl-pyrazol-3-yl)-benzamide], the melting point is 84 °C. Also, the antagonist dissociation constant (Kb) on human EAAT3 turned out to be 170 nM.

`CC(C)n1nccc1-c1cc(C(=O)NC(C)(C)C)cc(-c2ccc(F)cc2)c1` [Example 6, N-tert-Butyl-3-(4-fluorophenyl)-5-(2-propan-2-yl-pyrazol-3-yl)-benzamide] showed a melting point of 161 °C. In addition, on human EAAT3, the antagonist dissociation constant (Kb) came out at 95 nM.

`CC(C)n1nccc1-c1cc(C(=O)NC(C)(C)C)cc(-c2ccc(C(F)(F)F)cc2)c1` [Example 7, N-tert-Butyl-3-(2-propan-2-yl-pyrazol-3-yl)-5-[4-(trifluoromethyl)-phenyl]-benzamide] registered a melting point of 81 °C. This molecule had an antagonist dissociation constant (Kb) on human EAAT3 of 180 nM.

As to `CC(C)n1nccc1-c1cc(C(=O)NC(C)(C)C)cc(-c2ccc(F)c(F)c2)c1` [Example 8, N-tert-Butyl-3-(3,4-difluorophenyl)-5-(2-propan-2-yl-pyrazol-3-yl)-benzamide], the melting point was 82 °C. On human EAAT3, this molecule came in with an antagonist dissociation constant (Kb) of 390 nM.

`Cc1ccc(-c2cc(C(=O)NC(C)(C)C)cc(-c3ccnn3C(C)C)c2)cc1` [Example 9, N-tert-Butyl-3-(4-methylphenyl)-5-(2-propan-2-yl-pyrazol-3-yl)-benzamide] displayed a melting point of 163 °C. At human EAAT3, the Kb was determined as 260 nM.

As for `CC(C)c1ccc(-c2cc(C(=O)NC(C)(C)C)cc(-c3ccnn3C(C)C)c2)cc1` [Example 10, N-tert-Butyl-3-(4-propan-2-yl-phenyl)-5-(2-propan-2-yl-pyrazol-3-yl)-benzamide], the melting point turned out to be 86 °C. The antagonist equilibrium constant (Kb) on human EAAT3 was 550 nM.

Regarding `COc1ccc(-c2cc(C(=O)NC(C)(C)C)cc(-c3ccnn3C(C)C)c2)cc1` [Example 11, N-tert-Butyl-3-(4-methoxyphenyl)-5-(2-propan-2-yl-pyrazol-3-yl)-benzamide], the melting point turned out to be 79 °C. The same molecule showed a Kb on human EAAT3 of 290 nM.

For the molecule `CC(C)n1nccc1-c1cc(C(=O)NC(C)(C)C)cc(-c2ccc(F)c(Cl)c2)c1` [Example 12, N-tert-Butyl-3-(3-chloro-4-fluorophenyl)-5-(2-propan-2-yl-pyrazol-3-yl)-benzamide], the melting point turned out to be 81 °C. At human EAAT3, this molecule displayed a Kb of 610 nM.

On to `CC(C)n1nccc1-c1cc(C(=O)NC(C)(C)C)cc(-c2ccccc2)c1` [Example 13, N-tert-Butyl-3-phenyl-5-(2-propan-2-yl-pyrazol-3-yl)-benzamide], for which the melting point was found to be 168 °C. Also, the Kb on human EAAT3 worked out at 300 nM.

Molecule `CC(C)n1nccc1-c1cc(C(=O)NC(C)(C)C)cc(-c2ccc(C3CC3)cc2)c1` [Example 14, N-tert-Butyl-3-(4-cyclopropyl-phenyl)-5-(2-propan-2-yl-pyrazol-3-yl)-benzamide] showed a melting point of 83 °C. The molecule also showed a Kb on human EAAT3 of 880 nM.

On to `Cc1cc(-c2cc(C(=O)NC(C)(C)C)cc(-c3ccnn3C(C)C)c2)ccc1F` [Example 15, N-tert-Butyl-3-(4-fluoro-3-methyl-phenyl)-5-(2-propan-2-yl-pyrazol-3-yl)-benzamide], for which the melting point was determined as 155 °C. Besides, the Kb on human EAAT3 stood at 1280 nM.

For the molecule `CC(C)n1nccc1-c1cc(C(=O)NC(C)(C)C)cc(-c2ccc(Cl)c(F)c2)c1` [Example 16, N-tert-Butyl-3-(4-chloro-3-fluoro-phenyl)-5-(2-propan-2-yl-pyrazol-3-yl)-benzamide], the melting point amounted to 87 °C. Besides, the Kb at human EAAT3 was determined as 310 nM.

`CC(C)n1nccc1-c1cc(C(=O)NC(C)(C)C)cc(-c2ccc(C#N)cc2)c1` [Example 17, N-tert-Butyl-3-(4-cyano-phenyl)-5-(2-propan-2-yl-pyrazol-3-yl)-benzamide] came in with a melting point of 94 °C. This molecule also displayed an antagonist equilibrium constant (Kb) on human EAAT3 of 330 nM.

Take `CCC(C)(C)NC(=O)c1cc(-c2ccc(Cl)cc2)cc(-c2ccnn2C(C)(C)C)c1` [Example 18, 3-(2-tert-Butyl-pyrazol-3-yl)-5-(4-chlorophenyl)-N-(2-methyl-butan-2-yl)-benzamide]: the melting point is 183.5 °C. Further, the Kb on human EAAT3 was found to be 3420 nM.

Consider `CCC(C)(C)NC(=O)c1cc(-c2ccc(Cl)cc2)cc(-c2ccnn2C(C)C)c1` [Example 19, 3-(4-Chlorophenyl)-N-(2-methyl-butan-2-yl)-5-(2-propan-2-yl-pyrazol-3-yl)-benzamide], for which the melting point worked out at 72.5 °C. For the same molecule, on human EAAT3, the Kb came to 890 nM.

`Cc1ccc(-c2cc(C(=O)NC(C)(C)C)cc(-c3ccnn3C(C)C)c2)cc1F` [Example 20, N-tert-Butyl-3-(3-fluoro-4-methyl-phenyl)-5-(2-propan-2-yl-pyrazol-3-yl)-benzamide] returned a melting point of 81 °C. Besides, the Kb at human EAAT3 is 360 nM.

Regarding `CC(C)n1nccc1-c1cc(C(=O)NC(C)(C)C#N)cc(-c2ccc(Cl)cc2)c1` [Example 21, 3-(4-Chlorophenyl)-N-(2-cyano-propan-2-yl)-5-(2-propan-2-yl-pyrazol-3-yl)-benzamide], the melting point stood at 96 °C. This molecule also had a Kb at human EAAT3 of 320 nM.

The molecule `CC(C)(C#N)NC(=O)c1cc(-c2ccc(Cl)cc2)cc(-c2ccnn2C(C)(C)C)c1` [Example 22, 3-(2-tert-Butylpyrazol-3-yl)-5-(4-chlorophenyl)-N-(2-cyanopropan-2-yl)-benzamide] displayed a melting point of 119 °C. Moreover, on human EAAT3, the antagonist dissociation constant (Kb) is 370 nM.

Regarding `CC(C)(C)NC(=O)c1cc(-c2ccc(F)cc2)cc(-c2ccnn2C2CC2)c1` [Example 23, N-tert-Butyl-3-(2-cyclopropyl-pyrazol-3-yl)-5-(4-fluorophenyl)-benzamide], the melting point was 66 °C. Further, the Kb at human EAAT3 worked out at 110 nM.

The molecule `CCn1nccc1-c1cc(C(=O)NC(C)(C)C)cc(-c2ccc(Cl)cc2)c1` [Example 24, N-tert-Butyl-3-(4-chlorophenyl)-5-(2-ethyl-pyrazol-3-yl)-benzamide] registered a melting point of 68 °C. Also, on human EAAT3, the antagonist dissociation constant (Kb) was determined as 170 nM.

In turn, `CC(C)(C)NC(=O)c1cc(-c2ccc(Cl)cc2)cc(-c2ccnn2CC2CC2)c1` [Example 25, N-tert-Butyl-3-(4-chlorophenyl)-5-[2-(cyclopropyl-methyl)-pyrazol-3-yl]-benzamide] showed a melting point of 159 °C. This molecule displayed a Kb at human EAAT3 of 250 nM.

For `CC(C)n1nccc1-c1cc(C(=O)NC(C)(C)C2CC2)cc(-c2ccc(Cl)cc2)c1` [Example 26, 3-(4-Chlorophenyl)-N-(2-cyclopropyl-propan-2-yl)-5-(2-propan-2-yl-pyrazol-3-yl)-benzamide], the melting point was 169 °C. In addition, on human EAAT3, the Kb stood at 1520 nM.

As for `Cc1cc(-c2cc(C(=O)NC(C)(C)C)cc(-c3ccnn3C(C)(C)C)c2)ccc1F` [Example 27, N-tert-Butyl-3-(2-tert-butyl-pyrazol-3-yl)-5-(4-fluoro-3-methyl-phenyl)-benzamide], the melting point was determined as 186 °C. In addition, the Kb at human EAAT3 turned out to be 930 nM.
